Assay results taken from patent publication US8470340B2, “Peptides presenting an epitope of a domain of factor H binding protein and methods of use” (priority 2008, dated 2013).
Residue numbers refer to the chain shown, from its start. In names and notes the source's numbering stands. Ends that are not written are not given here.

B1: D25A: recombinant v.1 fHbp (gene from MC58) with residue 25 changed to alanine (protein)
chain: CSSGGGGVAADIGAGLADALTAPLAHKDKGLQSLTLDQSVRKNEKLKLAAQGAEKTYGNGDSLNTGKLKNDKVSRFDFIRQIEVDGQLITLESGEFQVYKQSHSALTAFQTEQIQDSEHSGKMVAKRQFRIGDIAGEHTSFDKLPEGGRATYRGTAFGSDDAGGKLTYTIDFAAKQGNGKIEHLKSPELNVDLAAADIKPDGKRHAVISGSVLYNQAEKGSYSLGIFGGKAQEVAGSAEVKTVNGIRHIGLAAKQHHHHHH
B2: H26A: recombinant v.1 fHbp (gene from MC58) with residue 26 changed to alanine (protein)
chain: B1 chain with A25D, H26A
B3: K27A: recombinant v.1 fHbp (gene from MC58) with residue 27 changed to alanine (protein)
chain: B1 chain with A25D, K27A

Experiments:
anti-fHbp mAb JAR 4 = test: Direct binding ELISA of mAb to KLH-conjugated peptides; set-up: species or system murine; settings: for mAb Reactivity JAR 4: KLH-conjugated peptide coated at 2 μg/ml; for reactivity with JAR 4 by ELISA: KLH-conjugated peptides, in words
Description: (§1) The ability of anti-fHbp mAb JAR 4 to bind to the KLH-conjugated peptides was determined by a direct binding ELISA. ELISA plates were coated with 100 μl per well of a 2 μg/ml (peptide concentration) solution at 4° C. overnight. The following morning, the plates were washed and then blocked with PBS containing 1% BSA. The plates were washed and incubated with serial dilutions of mAb JAR 4 or, as a control, anti-fHbp JAR 5 or anti-PorA P1.2 mAb. After incubation (1 hour at room temperature), the plates were washed and incubated with anti-mouse IgG conjugated either with alkaline phosphatase or IRDye 800CW (1:1000). The alkaline phosphatase was detected at 420 nm wavelength after 30 min incubation with phosphatase substrate (1 mg/ml) and the IRDye was detected at 800 nm wavelength.

anti-PorA P1.2 mAb = test: as above; settings: KLH-conjugated peptide coated at 2 μg/ml
Description: as §1

JAR4 mAb [1] = test: […] of phage library clones; assay type: binding, murine; settings: JAR4 coated at 1 μg/ml, cleared phage supernatant, absorbance at 450 nm
Description: […]—Aliquots in 96 wells ELISA plates 100 μl per well of JAR4 mAb were diluted (1 μg/ml) in 50 mM NaHC03, 0.02% (w/v) NaN3, pH 9.6 and incubated 3 hrs at 37° C. or overnight at 4° C. After washing 8 times with 1×PBS containing 0.05% (v/v) TWEEN 20), 200 μl of blocking buffer (PBS, 0.05% TWEEN 20, 5% non-fat dry milk) was added and incubated for 1 hr at 37° C. The wash was discarded and a mixture of 100 μl cleared phage supernatant and 100 μl blocking buffer was added, to the plate and incubated for 3 hrs at 37° C. or overnight at 4° C. After washing 8 times with 1×PBS containing 0.05% (v/v) TWEEN 20), and anti-M13 peroxidase conjugate antibody (Amersham Biosciences, Buckinghamshire, UK) was added at a dilution of […] in blocking buffer (100 μl/well) and incubated for 1 h at 37° C. After further washing, antibody binding was detected by adding TMB substrate, incubated for 45 min at room temperature and stopped with […] of 1 M H2SO4 and reading absorbance at 450 nm.
(§2) In order to identify peptides useful in eliciting antibodies having the eptitope-binding properties of the JAR 4 mAb, libraries of filamentous bacteriophage containing random peptides (9-mers and 12-mers) fused to protein VIII were screened using the JAR 4 mAb as described above. Phage eluted in the final step were used to infect host bacteria, from which the phagemids were collected and the relevant DNA sequence amplified by PCR and sequenced to identify the peptides that interacted with JAR 4 mAb. The relative binding affinity of the peptide of the isolated phage was determined by both […] and […], as described above.

JAR4 mAb [2] = test: […] of phage library clones; assay type: binding, murine; settings: phage captured by anti-pIII mAb, JAR4 detection, absorbance at 405 nm
Description: —Ninety-six wells plates were coated o.n. at 4° C. with 100 μl per well of a rat anti-pili (coat protein III) monoclonal antibody (concentration 1 mg/ml) in 50 mM NaHC03, 0.02% (w/v) NaN3, pH 9.6, and washed 8 times with TBST (50 mM Tris/Cl, 150 mM NaCl, pH 7.5, 0.05% (v/v) TWEEN 20). One hundred μl per well of cleared phage supernatant was added. After washing as above and incubation with antibody (concentration 1 mg/ml) in blocking buffer (5% (w/v) non-fat dry milk, 0.05% TWEEN 20 in PBS), and washing, the binding of the monoclonal antibody was detected by alkaline-phosphatase conjugated goat anti-mouse IgG antibody (Sigma, dilution 1:5000) using p-nitrophenyl phosphate substrate tablets (Sigma).
as §2

anti-fHbp JAR 5 = test: Direct binding ELISA of mAb to KLH-conjugated peptides; set-up: species or system murine; settings: for mAb Reactivity JAR 5: KLH-conjugated peptide coated at 2 μg/ml; for binding to control mAb anti-fHbp JAR 5: KLH-conjugated peptides, in words
Description: as §1

JAR 4 [3] = test: ELISA binding of native fHbp sequence peptides; set-up: species or system murine; settings: peptides from the native v.1 fHbp sequence
JAR 4 [4] = test: ELISA binding of mAb to site-specific mutant recombinant v.1 fHbp; set-up: species or system murine; settings: for decrease in JAR 4-reactivity compared with wild-type recombinant fHbp: v.1 fHbp (gene from MC58) alanine mutants
Description: Site-specific mutagenesis was used to test the role of amino acid residues involved in the JAR 4 anti-fHbp mAb epitope. Mutagenesis was performed using the QuikChange II kit (Stratagene) using 10 ng of plasmid template and the manufacturer's protocols. For testing residues putatively involved in mAb epitopes, mutagenesis reactions were performed on pET21-based plasmids encoding a wild-type fHbp gene. Site-specific mutagenesis was used to introduce the H26A and K27A substitution into the pET21 plasmid encoding v.1 fHbp from MC58. Mutant fHbp genes were confirmed by DNA sequencing as described for the wild-type plasmids, above.
Site-directed mutagenesis of residues 25, 26 and 27 was performed, each of which was individually changed to alanine in fHbp from the v.1 group (gene from MC58). These mutants were created using the non-signal containing sequence from strain MC58 (MVAAD . . . GLAAKQ) (SEQ ID NO:73), and are referred to as D25A, H26A and K27A, respectively. The amino acid sequences of the portions of the A domains of these mutants is provided in FIG. 7, Panel A. Results of the binding experiment between mutated fHbp and the various JAR mAbs are shown in FIG. 6.

Row | Molecule | PHAGELISA (JAR4 mAb [1]) | SEPHELISA (JAR4 mAb [2]) | also measured
1 | HFVQQTPQSQDPAKC (also: conjugated to KLH) [PorA P1.2, control peptide derived from loop 4 of PorA VR2, strain 2996, conjugated to KLH, reference compound] |  |  | mAb Reactivity JAR 4 (anti-fHbp mAb JAR 4): − (no detectable binding at 50 μg/ml); mAb Reactivity P1.2 (anti-PorA P1.2 mAb): + (50% of maximal binding at 1-10 μg/ml)
2 | 2 (CGGVYDDKTGCA) [Clone 2] | ++ (O.D. from 0.5 to 1) | ++++ (O.D. from 2 to 3.5) | 
3 | AEGEFHDHKTQLDPDPAKC (also: conjugated to KLH) [JAR 4 Phage 1, synthetic peptide conjugated to keyhole limpet hemocyanin (KLH)] |  |  | mAb Reactivity JAR 5 (anti-fHbp JAR 5): − (no detectable binding at 50 μg/ml); binding to control mAb anti-fHbp JAR 5 (anti-fHbp JAR 5): no detectable binding; mAb Reactivity JAR 4 (anti-fHbp mAb JAR 4): ++ (50% of maximal binding at < 1 μg/ml); reactivity with JAR 4 by ELISA (anti-fHbp mAb JAR 4): reacted; mAb Reactivity P1.2 (anti-PorA P1.2 mAb): − (no detectable binding at 50 μg/ml)
4 | 5 (GCMGYDHRSGCV) [Clone 5] | + (O.D. from 0.15 to 0.5) | ++ (O.D. from 0.5 to 1) | 
5 | 3 (HDHKTQLDP) [Clone 3] | ++++ (O.D. from 2 to 3.5) | ++++ (O.D. from 2 to 3.5) | 
6 | 6 (FHDHKTANQ) [Clone 6] | + (O.D. from 0.15 to 0.5) | ++ (O.D. from 0.5 to 1) | 
7 | 13 (LCQERLSQRCGV) [Clone 13] | + (O.D. from 0.15 to 0.5) | + (O.D. from 0.15 to 0.5) | 
8 | ALTAPLDHKDKGLQSDPAKC (also: conjugated to KLH) [JAR 4 Native, reference compound] |  |  | mAb Reactivity JAR 5 (anti-fHbp JAR 5): − (no detectable binding at 50 μg/ml); mAb Reactivity JAR 4 (anti-fHbp mAb JAR 4): − (no detectable binding at 50 μg/ml)
9 | AEGEFHDHKLEGTEDPAKC (also: conjugated to KLH) [JAR 4 Phage 3, synthetic peptide conjugated to keyhole limpet hemocyanin (KLH)] |  |  | mAb Reactivity JAR 5 (anti-fHbp JAR 5): − (no detectable binding at 50 μg/ml); binding to control mAb anti-fHbp JAR 5 (anti-fHbp JAR 5): no detectable binding; mAb Reactivity JAR 4 (anti-fHbp mAb JAR 4): + (50% of maximal binding at 1-10 μg/ml); reactivity with JAR 4 by ELISA (anti-fHbp mAb JAR 4): reacted
10 | 8 (HDHRIWPLDVTA) [Clone 8] | + (O.D. from 0.15 to 0.5) | ++ (O.D. from 0.5 to 1) | 
11 | ADALTAPLDHKDK [SEQ ID NO: 32] |  |  | binding to JAR 4 by ELISA (JAR 4 [3]): no detectable binding
12 | 11 (LEWCGFSRCEVG) [Clone 11] | + (O.D. from 0.15 to 0.5) | + (O.D. from 0.15 to 0.5) | 
13 | 10 (HVHRGSQGGQRQ) [Clone 10] | + (O.D. from 0.15 to 0.5) | + (O.D. from 0.15 to 0.5) | 
14 | 18 (VGWCGFERCSSA) [Clone 18] | + (O.D. from 0.15 to 0.5) | + (O.D. from 0.15 to 0.5) | 
15 | 12 (KDHRHMLWPEES) [Clone 12] | + (O.D. from 0.15 to 0.5) | + (O.D. from 0.15 to 0.5) | 
16 | 15 (RCQVQVMVLCAL) [Clone 15] | + (O.D. from 0.15 to 0.5) | + (O.D. from 0.15 to 0.5) | 
17 | 16 (HDHKHGFQEPAS) [Clone 16] | + (O.D. from 0.15 to 0.5) | + (O.D. from 0.15 to 0.5) | 
18 | 9 (NDERQMSDWYRA) [Clone 9] | + (O.D. from 0.15 to 0.5) | + (O.D. from 0.15 to 0.5) | 
19 | TKDDPLKQHLALSAGDPAKC (also: conjugated to KLH) [JAR 4 Scrambled, scrambled native fHbp peptide, negative control, conjugated to KLH, reference compound] |  |  | mAb Reactivity JAR 5 (anti-fHbp JAR 5): − (no detectable binding at 50 μg/ml); mAb Reactivity JAR 4 (anti-fHbp mAb JAR 4): − (no detectable binding at 50 μg/ml); mAb Reactivity P1.2 (anti-PorA P1.2 mAb): − (no detectable binding at 50 μg/ml)
20 | AEGEFWTLAVFDHKAQTGDPAKC (also: conjugated to KLH) [JAR 4 Phage 2, synthetic peptide conjugated to keyhole limpet hemocyanin (KLH)] |  |  | mAb Reactivity JAR 4 (anti-fHbp mAb JAR 4): ++ (50% of maximal binding at < 1 μg/ml); reactivity with JAR 4 by ELISA (anti-fHbp mAb JAR 4): reacted; mAb Reactivity P1.2 (anti-PorA P1.2 mAb): − (no detectable binding at 50 μg/ml)
21 | DHKDKGLQSLTLD [SEQ ID NO: 33] |  |  | binding to JAR 4 by ELISA (JAR 4 [3]): no detectable binding
22 | 1 (HDHKLEGTE) [Clone 1] | +++ (O.D. from 1 to 2) | ++++ (O.D. from 2 to 3.5) | 
23 | 14 (WVLCGQGCGGTA) [Clone 14] | + (O.D. from 0.15 to 0.5) | + (O.D. from 0.15 to 0.5) | 
24 | 7 (WRWCGFERCPEG) [Clone 7] | + (O.D. from 0.15 to 0.5) | ++ (O.D. from 0.5 to 1) | 
25 | AQAFQTPVHSDPAKC (also: conjugated to KLH) [GNA 33, control peptide, a mimetic of PorA P1.2, conjugated to KLH, reference compound] |  |  | mAb Reactivity JAR 4 (anti-fHbp mAb JAR 4): − (no detectable binding at 50 μg/ml); mAb Reactivity P1.2 (anti-PorA P1.2 mAb): + (50% of maximal binding at 1-10 μg/ml)
26 | 4 (WTLAVFDHKAQT) [Clone 4] | +++ (O.D. from 1 to 2) | +++ (O.D. from 1 to 2) | 
27 | 17 (SDWGWGGRAEQH) [Clone 17] | + (O.D. from 0.15 to 0.5) | + (O.D. from 0.15 to 0.5) | 
28 | B1 |  |  | decrease in JAR 4-reactivity compared with wild-type recombinant fHbp (JAR 4 [4]): approximately 1000 fold
29 | B2 |  |  | decrease in JAR 4-reactivity compared with wild-type recombinant fHbp (JAR 4 [4]): approximately 10 fold
30 | B3 |  |  | JAR 4 binding compared with wild-type recombinant fHbp (JAR 4 [4]; v.1 fHbp (gene from MC58) alanine mutant): eliminated detectable JAR 4 binding
